Measurements published in patent US8980587B2, “Process for producing reveromycin A or a synthetic intermediate thereof, process for producing compounds containing a spiroketal ring and novel antineoplastics, fungicides and therapeutic agents for bone disorders” (RIKEN, priority 2010, dated 2015).

How the values were obtained:
[1] = molecular target: T1, Isoleucyl tRNA synthetase (Homo sapiens, UniProt P41252); assay: Inhibitory activity against isoleucyl tRNA synthetase; type: biochemical; details: for IC50: HT1080 cell lysate, [3H]isoleucine, 25° C., 20 minutes, read-out: IRS IC50 (converted)
T1 construct: 10 μg protein (HT1080 cell lysate); endogenous in cells; host or cells: HT1080 cell lysate
T1 sequence (P41252 1-1262): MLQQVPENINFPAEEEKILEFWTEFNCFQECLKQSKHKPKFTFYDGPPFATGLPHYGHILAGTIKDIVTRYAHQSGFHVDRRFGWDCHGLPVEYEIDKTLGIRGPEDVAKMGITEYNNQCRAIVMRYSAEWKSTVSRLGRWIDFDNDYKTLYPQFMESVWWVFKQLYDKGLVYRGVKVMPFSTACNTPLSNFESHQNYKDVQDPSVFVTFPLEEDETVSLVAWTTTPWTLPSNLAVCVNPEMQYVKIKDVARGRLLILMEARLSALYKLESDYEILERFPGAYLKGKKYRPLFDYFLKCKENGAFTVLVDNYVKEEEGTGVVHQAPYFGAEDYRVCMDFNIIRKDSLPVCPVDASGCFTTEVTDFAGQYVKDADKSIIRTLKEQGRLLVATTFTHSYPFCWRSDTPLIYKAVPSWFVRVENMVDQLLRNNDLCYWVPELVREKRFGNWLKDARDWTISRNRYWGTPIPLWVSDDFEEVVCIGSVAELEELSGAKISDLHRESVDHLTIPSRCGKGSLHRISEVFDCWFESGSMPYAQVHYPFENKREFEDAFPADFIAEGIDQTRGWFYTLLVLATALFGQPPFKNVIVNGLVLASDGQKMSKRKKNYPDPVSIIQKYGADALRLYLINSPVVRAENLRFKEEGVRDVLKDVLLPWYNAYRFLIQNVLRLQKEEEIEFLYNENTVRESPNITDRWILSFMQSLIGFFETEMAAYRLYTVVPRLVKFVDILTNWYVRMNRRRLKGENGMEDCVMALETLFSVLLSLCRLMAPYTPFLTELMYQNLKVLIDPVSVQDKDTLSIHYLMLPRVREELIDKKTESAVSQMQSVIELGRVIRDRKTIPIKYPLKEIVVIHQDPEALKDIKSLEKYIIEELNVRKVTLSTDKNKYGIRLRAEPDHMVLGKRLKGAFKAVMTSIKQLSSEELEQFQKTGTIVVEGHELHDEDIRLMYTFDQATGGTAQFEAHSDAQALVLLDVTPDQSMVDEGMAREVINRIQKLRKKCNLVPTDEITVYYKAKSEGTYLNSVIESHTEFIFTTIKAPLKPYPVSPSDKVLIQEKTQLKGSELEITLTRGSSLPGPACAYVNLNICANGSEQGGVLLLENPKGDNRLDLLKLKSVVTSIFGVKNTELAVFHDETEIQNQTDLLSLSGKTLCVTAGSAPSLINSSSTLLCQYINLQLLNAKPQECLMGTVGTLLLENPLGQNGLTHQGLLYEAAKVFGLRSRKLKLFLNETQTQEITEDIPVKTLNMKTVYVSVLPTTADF
Procedure: To a solution for enzymatic reaction [20 mM imidazole, pH 7.5, 75 mM MgCl2, 0.5 mM DTT, 1 U/ml tRNA (E. coli origin, manufactured by Sigma), 3 mM ATP, 1 μM isoleucine, 10 μCi/ml [^3H]isoleucine (manufactured by GE Healthcare), 10 μg protein (HT1080 cell lysate)], each of the agents in Table 5 was added at 1% (v/v) so as to attain a total amount of 100 μl and a reaction was carried out at 25° C. for 20 minutes. One mg/ml BSA solution (400 μl) and 10% TCA solution (500 μl) were then added thereto to terminate the reaction and left to stand at 4° C. overnight. A precipitate obtained by a centrifugal operation was transferred onto GF-C filter (manufactured by Whatman), washed three times with 5% TCA solution, followed by drying the filter. Two milliliters of aquasol-2 (manufactured by PerkinElmer) and the filter were placed in a vial and vigorously stirred, and then the amount of [^3H]isoleucine was measured by a liquid scintillation counter (manufactured by Beckman) to determine a rate of enzyme activity.

[2] = tested on: bone metastasis of tumors; details: background art, Patent Document 1; cited from earlier work
osteoclasts = details: background art, Patent Document 1; cited from earlier work

What does the source list for `CCCCC1CCC2(CCC(C)C(C/C=C(C)/C=C/C(O)C(C)/C=C/C(=O)O)O2)OC1/C=C/C(C)=C/C(=O)O` (stereo not shown) [RM-T]?
IC50 [1]: 0.367 nM; enzyme inhibiting activity against the target molecule IRS (in words) ([1]; as compared with RM-A): higher

With `CCCC[C@H]1CC[C@]2(CC[C@H](C)[C@@H](C/C=C(C)/C=C/[C@H](O)[C@@H](C)/C=C/C(=O)OCC)O2)O[C@H]1/C=C/C(C)=C/C(=O)O` [RM-T ethyl-ester] as the compound, how does the IC50 [1] read?
The IC50 was 349 nM.

Which IC50 [1] does the source give for `CCCCCC[C@@]1(OC(=O)CCC(=O)O)CC[C@]2(CC[C@H](C)[C@@H](C/C=C(C)/C=C/[C@H](O)[C@@H](C)/C=C/C(=O)O)O2)O[C@H]1/C=C/C(C)=C/C(=O)O` [RM-E] here?
Its IC50 is 4.06 nM.

What does the source list for `CCCC[C@@]1(OC(=O)CCC(=O)O)CC[C@]2(CC[C@H](C)[C@@H](C/C=C(C)/C=C/[C@H](O)[C@@H](C)/C=C/C(=O)O)O2)O[C@H]1/C=C/C(C)=C/C(=O)O` [RM-A, Reveromycin A]?
bone metastasis of tumors (in words) [2]: suppress bone metastasis of tumors; apoptosis of osteoclasts (in words) (osteoclasts): induce apoptosis selectively for osteoclasts at low concentrations; IC50 [1]: 9.38 nM
